These results are taken from patent publication US9359196B2, “Antiproliferative compositions comprising curcumin analogs and methods of producing and using same” (The Board of Regents of the University of Oklahoma, priority 2009, dated 2016).

Data set [1] deals with H441 cells. Nature of the data set: Illumina microarray gene expression analysis of H441 cells. To be noted: H441, 1 μM, 12 hours. The format is cell-based, human. As to the method:
RNA Extraction and microarray sample processing: H441 cells were seeded in […] tissue culture plates at a density of 1×10^6 cells per well. The cells were allowed to attach and grow overnight and then treated with CLEFMA (n=5) at 1 μM in culture medium supplemented with 5% FBS. The DMSO concentration was maintained at 0.1% per well. Control wells (n=5) received equivalent volumes of DMSO without any test compound. The cells were kept in the treatment medium for 12 hours, after which the cells were washed twice with ice-cold Dulbecco's phosphate buffered saline (PBS). The total RNA was extracted using the RNAeasy kit (Qiagen, CA) as per the manufacturer's instructions. The quality of RNA was ascertained by the Nanodrop 2000 spectrophotometer (NanoDrop products, Wilmington, Del.).
The expression of >48,000 genes were compared using Illumina Human WG-6 v3 arrays. Hybridization to Illumina microarrays was performed at the Oklahoma Medical Research Foundation (Oklahoma City, USA). RNA (250 ng) from each sample was labeled using the Illumina Total Prep RNA Amplification Kit following the manufacturer's directions (Ambion, Austin, Tex.). Briefly, cDNA was reverse transcribed from RNA after priming with T7-oligo-dT, and cRNA was synthesized from the T7 promoter while incorporating biotinylated UTP. The cRNA was then hybridized overnight to Illumina BeadChips, and the microarray chips were washed with high stringency and labeled with streptavidin-Cy3 (Amersham Biosciences; Piscataway, N.J.) prior to scanning on an Illumina BeadArray Reader.
Microarray Data Analysis: The Illumina WG-6_v3 array data for each experimental condition were exported from the BeadStudio Software for further analysis. The data were normalized as described previously [Dozmorov et al., 2004; Dozmorov et al., 2009] using the variability of low-expressing genes as a reference point. In order to find genes expressed above the level of technical noise, a frequency histogram of raw expression values was examined for each array. The histogram yielded a right-skewed unimodal distribution curve with a mode of approximately 75. A normal distribution curve representing the variability of the data around zero was then fitted around the mode, mirroring the Gaussian profile of the left part of the histogram. Its parameters were then defined (mean and standard deviation (SD)) and the data were normalized to the standard deviation of the noise after subtraction of the mean. […] The data were then filtered to remove genes with an expression value less than 3.0. This is equivalent to setting a threshold at 3 SD above the noise level. The genes that expressed below the noise level under all experimental conditions (approximately 1,600) were excluded from consideration, as their expression could not be reliably assessed. Full microarray data were deposited in the Gene Expression Omnibus (GEO, GSE23420) and are accessible on the GEO web site.
To identify differentially expressed genes between two experimental groups, the associative analysis as described elsewhere [Dozmorov et al., 2009] was used. Briefly, a reference group of genes expressed above background with low variability of expression in pooled microarray datasets was identified by an F-test. […] For the genes with statistically significant variability above the random, the variations were assumed to have biological reasons. An associative t-test was applied to investigate if a given gene belongs to a certain group. […]

Data set [2] has as its system Human lung adenocarcinoma cell line NCI-H441. Nature of the data set: In vitro anti-proliferative activity in H441 cells (hexosaminidase), Example 2. In kind it is cell-based. As to the method: Human lung adenocarcinoma cell line NCI-H441 (ATCC # HTB-174) and normal lung fibroblasts LL-24 (ATCC #CCL-151) were obtained from American Type Culture Collection (Manassas, Va.). The cells were maintained at 37° C. with 5% CO2 in RPMI 1640 medium (Invitrogen, Carlsbad, Calif.). The medium was supplemented with 10% heat-inactivated fetal bovine serum and 50 μg/ml of gentamicin (GIBCO Laboratories, Grand Island, N.Y.). For cell proliferation assay, the cells were seeded in 96-well flat-bottom tissue culture plates at a density of 0.5−1×10^4 cells per well. The cells were allowed to adhere and grow overnight, followed by treatment with CLEFMA or CLEFMA-liposomes. The concentration of CLEFMA was maintained in the range of 0.1-25 μM in 100 μl of RPMI 1640 medium. For comparison, the cells were also treated with 1 and 10 μM natural curcumin and EF24. EF24 is a potent synthetic curcuminoid and a close analog of CLEFMA [Adams et al., 2004]. All solutions of plain drugs were made in dimethylsulfoxide (DMSO). The concentration of DMSO in the treatment medium was maintained at 0.1%. The control wells received equivalent amounts of DMSO or phospholipid-matched control liposomes. Inhibition of cell proliferation was determined by measuring a decrease in hexosaminidase activity as described by Landegren [Landegren, 1984]. Para-nitrophenol-N-acetyl-beta-D-glucosaminide (60 μl per well) was used as the substrate for the hexosaminidase enzyme. The results of hexosaminidase assay were also confirmed by visualization of cultured cells under a microscope.

In data set [3] the test system is H441 cells. Nature of the data set: Cell proliferation assay in H441 cells (hexosaminidase), Example 3. The format is cell-based, human. As to the method:
Cell proliferation assay: CLEFMA was synthesized and analyzed for purity by the methods detailed elsewhere. Doxorubicin (DOX, GBiosciences, Maryland Heights, Mo.), Paclitexal (PAX, EMD Chemicals, Gibbstown, N.J.), Curcumin (CUR, Sigma, St. Louis, Mo.) and Gemcitabine (GMCB, Acros Organics, Morris Plains, N.J.) were obtained from commercial sources. For cell proliferation assays, the cells were seeded in 96-well, flat-bottom tissue culture plates at a density of 5,000 cells per well. The cells were allowed to adhere and grow overnight, followed by their treatment with drugs (0-20 μM). All drugs were added as solutions in dimethylsulfoxide (DMSO) filtered through 0.2-μm nylon filters; control wells received identical amounts of DMSO without any drugs. The inhibition of cell proliferation was determined after 24-48 h by measuring the decrease in hexosaminidase activity as described by Landegren [Landegren, 1984]; para-nitrophenol-N-acetyl-beta-D-glucosaminide was used as a substrate for the hexosaminidase enzyme. To assess the effect of antioxidants, the cells were simultaneously treated with catalase (CAT, 1000 U), superoxide dismutase (SOD, 500 U) and N-acetylcysteine (NAC, 1 mM). A non-toxic concentration of CAT (Worthington, N.J.), SOD (Sigma, St. Louis, Mo.) and NAC (Enzo Life Sciences, Plymouth Meeting, Pa.) was established in H441 cells prior to these experiments.

In the data set on H441 cells [1], `O=C(O)C=CC(=O)N1CC(=Cc2ccccc2Cl)C(=O)C(=Cc2ccccc2Cl)C1` [Compound 29, 4-[3,5-Bis-(2-chlorobenzylidene)-4-oxo-piperidin-1-yl]-4-oxo-2-butenoic acid] showed a GAPDH expression increase of 1.3 fold, an HMOX1 expression increase of 5.3 fold, an SOD1 expression increase of 1.3 fold and an SULTA1 expression increase of 3.8 fold. The molecule also registered an SULTA2 expression increase in the data set with H441 cells [1] of 8.5 fold. Besides, the “anti-proliferative activity in H441 cells” value in data set [2] is “more potent than curcumin and another synthetic curcuminoid EF24”. The H441 cells surviving entry in data set [2] (24 h treatment with 10 μM) is “Less than 40%”. In addition, in the data set with H441 cells [3] (10 and 20 μM), the “antiproliferative activity versus PAX, GMCB, DOX, CUR” value is listed as “antiproliferative activity comparable to that shown by these drugs”. Also, in the data set on H441 cells [3] (CLEFMA 10 and 20 μM), the “effect of co-administered CAT, SOD, NAC on cytotoxicity” value was “partially rescue CLEFMA-induced cytotoxicity”.
